Literature values, collected in patent publication US20040132055A1, “Recombinant chalcomycin polyketide synthase and modifying genes” (priority 2002, published 2004).

Settings: spectrum, in words

In the case of `COC1CC(C)OC(OC2C(C)/C=C/C(=O)OC(C)C(COC3OC(C)C(O)C(OC)C3OC)C3OC3/C=C/C(=O)C(C)(O)CC2C)C1O` (stereo not shown) [Chalcomycin, chalcomycin], the antimicrobial activity is given as “broad spectrum of antimicrobial activity”.
